Patent publication US5378696A, “Rapamycin esters” (American Home Products Corporation, priority 1993, dated 1995)
≈ marks a conversion by molar mass, not a printed value. Where a name gives a salt, the structure may show the parent alone. Read-outs that look alike come from different tables or passages of the source.

Legend:
[1] = tested on: lymphocyte proliferation, cells from the thymus of normal BALB/c mice (PHA and IL-1); assay: comitogen-induced thymocyte proliferation procedure (LAF); type: cell-based; settings: ratio, thymocytes 72 hours with PHA and IL-1, rapamycin 1.0
Protocol: (§1) Immunosuppressive activity was evaluated in an in vitro standard pharmacological test procedure to measure lymphocyte proliferation (LAF) and in two in vivo standard pharmacological test procedures. The first in vivo procedure was a popliteal lymph node (PLN) test procedure which measured the effect of compounds of this invention on a mixed lymphocyte reaction and the second in vivo procedure evaluated the survival time of a pinch skin graft.
Briefly, cells from the thymus of normal BALB/c mice are cultured for 72 hours with PHA and IL-1 and pulsed with tritiated thymidine during the last six hours. […] Cells are harvested and incorporated; radioactivity is determined. inhibition of lymphoproliferation is assessed in percent change in counts per minute from non-drug treated controls. The results are expressed by the following ratio: [formula]

pinch skin graft = assay: survival time of pinch skin graft; type: in vivo, mouse (male DBA/2 donors, male BALB/c recipients); settings: intraperitoneally, mean graft survival time ± S.D.
Protocol: as §1
The second in vivo test procedure is designed to determine the survival time of pinch skin graft from male DBA/2 donors transplanted to male BALB/c recipients. The method is adapted from Billingham R. E. and Medawar P. B., J. Exp. Biol. 28:385-402, (1951). Briefly, a pinch skin graft from the donor is grafted on the dorsum of the recipient as a homograft, and an autograft is used as control in the same region. […] Untreated recipients serve as rejection control. The graft is monitored daily and observations are recorded until the graft becomes dry and forms a blackened scab. This is considered as the rejection day. The mean graft survival time (number of days±S.D.) of the drug treatment group is compared with the control group.

Candida albicans 3669 = assay: antifungal plate test procedure; type: cell-based
Protocol: (§2) The following represents the typical procedure used. Compound to be tested was placed on sterile dried 1/4" plate disks, and allowed to dry. Agar plates were seeded with fungi and allowed to solidify. The impregnated disks were placed on the seeded Agar surface and incubated for the time required for the particular culture. Results are expressed in MIC (μg/ml) to inhibit growth.

[2] = tested on: Candida albicans ATCC 10231; assay: antifungal plate test procedure; type: cell-based
Protocol: as §2

[3] = tested on: Candida albicans ATCC 38246; assay: antifungal plate test procedure; type: cell-based
Protocol: as §2

[4] = tested on: Candida albicans ATCC 38247; assay: antifungal plate test procedure; type: cell-based
Protocol: as §2

[5] = tested on: Candida albicans ATCC 38248; assay: antifungal plate test procedure; type: cell-based
Protocol: as §2

[6] = Candida albicans, 3669, strain 3669, read-out: MIC
[7] = Candida albicans, ATCC10231, ATCC 10231, read-out: MIC
[8] = Candida albicans, ATCC38246, ATCC 38246, read-out: MIC
[9] = Candida albicans, ATCC38247, ATCC 38247, read-out: MIC
[10] = Candida albicans, ATCC38248, ATCC 38248, read-out: MIC

SMILES	LAF (ratio) [1]	Skin Graft (days + SD), mean graft survival time (pinch skin graft) [days]	MIC (Candida albicans 3669; [6]) [µg/mL]	MIC [2, 7] [µg/mL]	MIC [3, 8] [µg/mL]	MIC [4, 9] [µg/mL]	MIC [5, 10] [µg/mL]	also measured
CO[C@H]1C[C@@H]2CC[C@@H](C)[C@@](O)(O2)C(=O)C(=O)N2CCCC[C@H]2C(=O)O[C@H]([C@H](C)C[C@@H]2CC[C@@H](OC(=O)CCCC(=O)O)[C@H](OC)C2)CC(=O)[C@H](C)/C=C(\C)[C@@H](OC(=O)CCCC(=O)O)[C@@H](OC)C(=O)[C@H](C)C[C@H](C)/C=C/C=C/C=C/1C [Example 5, Rapamycin-31,42-hemiglutarate bissodium salt]								LAF (ratio) ([1]; bissodium salt): 0.02; Skin Graft (days + SD), mean graft survival time (pinch skin graft; bissodium salt): 8.0 ± 1.7 days; MIC (Candida albicans 3669; strain 3669, bissodium salt): > 0.4 µg/mL; MIC ([2]; ATCC 10231, bissodium salt): 0.4 µg/mL; MIC ([3]; ATCC 38246, bissodium salt): > 0.4 µg/mL; MIC ([4]; ATCC 38247, bissodium salt): > 0.4 µg/mL; MIC ([5]; ATCC 38248, bissodium salt): > 0.4 µg/mL
CO[C@H]1C[C@@H]2CC[C@@H](C)[C@@](O)(O2)C(=O)C(=O)N2CCCC[C@H]2C(=O)O[C@H]([C@H](C)C[C@@H]2CC[C@@H](OC(=O)CCCC(=O)O)[C@H](OC)C2)CC(=O)[C@H](C)/C=C(\C)[C@@H](OC(=O)CCCC(=O)O)[C@@H](OC)C(=O)[C@H](C)C[C@H](C)/C=C/C=C/C=C/1C [Example 4, Rapamycin-31,42-bishemiglutarate]	0.56	10.2 ± 1.7	0.4 (≈ 0.35 µM)	> 0.4	0.2 (≈ 0.175 µM)	> 0.4	0.2 (≈ 0.175 µM)	
CO[C@H]1C[C@@H]2CC[C@@H](C)[C@@](OC(=O)CCC(=O)OCc3ccccc3)(O2)C(=O)C(=O)N2CCCC[C@H]2C(=O)O[C@H]([C@H](C)C[C@@H]2CC[C@@H](OC(=O)CCC(=O)OCc3ccccc3)[C@H](OC)C2)CC(=O)[C@H](C)/C=C(\C)[C@@H](OC(=O)CCC(=O)OCc2ccccc2)[C@@H](OC)C(=O)[C@H](C)C[C@H](C)/C=C/C=C/C=C/1C [Example 1, Rapamycin-14,31,42-tris(monobenzylsuccinate)]	0.37	8.2 ± 1.2	> 0.4	> 0.4	> 0.4	> 0.4	> 0.4	
C=CCOC(=O)CCCC(=O)O[C@@H]1/C(C)=C/[C@@H](C)C(=O)C[C@@H]([C@H](C)C[C@@H]2CC[C@@H](O)[C@H](OC)C2)OC(=O)[C@@H]2CCCCN2C(=O)C(=O)[C@]2(O)O[C@@H](CC[C@H]2C)C[C@H](OC)/C(C)=C/C=C/C=C/[C@@H](C)C[C@@H](C)C(=O)[C@@H]1OC [Example 15, Rapamycin-31-allylglutarate]	0.40	9.8 ± 0.8						
CO[C@H]1C[C@@H]2CC[C@@H](C)[C@@](O)(O2)C(=O)C(=O)N2CCCC[C@H]2C(=O)O[C@H]([C@H](C)C[C@@H]2CC[C@@H](OC(=O)COCC(=O)O)[C@H](OC)C2)CC(=O)[C@H](C)/C=C(\C)[C@@H](OC(=O)COCC(=O)O)[C@@H](OC)C(=O)[C@H](C)C[C@H](C)/C=C/C=C/C=C/1C [Example 9, Rapamycin-31,42-bishemi-3'-oxoglutarate disodium salt]								LAF (ratio) ([1]; disodium salt): 0.22; Skin Graft (days + SD), mean graft survival time (pinch skin graft; disodium salt): 10.2 ± 1.2 days; MIC (Candida albicans 3669; strain 3669): > 0.4 µg/mL; MIC ([2]; ATCC 10231, disodium salt): 0.2 µg/mL; MIC ([3]; ATCC 38246): > 0.4 µg/mL; MIC ([4]; ATCC 38247, disodium salt): 0.2 µg/mL; MIC ([5]; ATCC 38248, disodium salt): 0.4 µg/mL
C=CCOC(=O)CCCC(=O)O[C@@H]1CC[C@@H](C[C@@H](C)[C@@H]2CC(=O)[C@H](C)/C=C(\C)[C@@H](O)[C@@H](OC)C(=O)[C@H](C)C[C@H](C)/C=C/C=C/C=C(\C)[C@@H](OC)C[C@@H]3CC[C@@H](C)[C@@](O)(O3)C(=O)C(=O)N3CCCC[C@H]3C(=O)O2)C[C@H]1OC [Example 14, Rapamycin-42-allylglutarate]	3.42	11.0 ± 0.0						
CO[C@H]1C[C@@H]2CC[C@@H](C)[C@@](O)(O2)C(=O)C(=O)N2CCCC[C@H]2C(=O)O[C@H]([C@H](C)C[C@@H]2CC[C@@H](OC(=O)CCC(=O)OCc3ccccc3)[C@H](OC)C2)CC(=O)[C@H](C)/C=C(\C)[C@@H](OC(=O)CCC(=O)OCc2ccccc2)[C@@H](OC)C(=O)[C@H](C)C[C@H](C)/C=C/C=C/C=C/1C [Example 2, Rapamycin-31,42-bis(monobenzylsuccinate)]	0.9	10.7 ± 1.2	0.4 (≈ 0.309 µM)	> 0.4	0.4 (≈ 0.309 µM)	> 0.4	0.4 (≈ 0.309 µM)	
CO[C@H]1C[C@@H]2CC[C@@H](C)[C@@](O)(O2)C(=O)C(=O)N2CCCC[C@H]2C(=O)O[C@H]([C@H](C)C[C@@H]2CC[C@@H](OC(=O)COCC(=O)O)[C@H](OC)C2)CC(=O)[C@H](C)/C=C(\C)[C@@H](OC(=O)COCC(=O)O)[C@@H](OC)C(=O)[C@H](C)C[C@H](C)/C=C/C=C/C=C/1C [Example 8]	positive ratio		> 0.4		> 0.4	0.4 (≈ 0.349 µM)	> 0.4	MIC ([2]; ATCC 10231): 0.4 µg/mL (≈ 0.349 µM)
CO[C@H]1C[C@@H]2CC[C@@H](C)[C@@](O)(O2)C(=O)C(=O)N2CCCC[C@H]2C(=O)O[C@H]([C@H](C)C[C@@H]2CC[C@@H](OC(=O)CCC(=O)OCc3ccccc3)[C@H](OC)C2)CC(=O)[C@H](C)/C=C(\C)[C@@H](O)[C@@H](OC)C(=O)[C@H](C)C[C@H](C)/C=C/C=C/C=C/1C [Example 3, Rapamycin-42-(monobenzylsuccinate)]	3.27	12.7 ± 0.9	0.1 (≈ 0.0905 µM)	0.2 (≈ 0.181 µM)	0.1 (≈ 0.0905 µM)	0.4 (≈ 0.362 µM)	0.1 (≈ 0.0905 µM)	
CO[C@H]1C[C@@H]2CC[C@@H](C)[C@@](O)(O2)C(=O)C(=O)N2CCCC[C@H]2C(=O)O[C@H]([C@H](C)C[C@@H]2CC[C@@H](OC(=O)CCC(=O)O)[C@H](OC)C2)CC(=O)[C@H](C)/C=C(\C)[C@@H](OC(=O)CCC(=O)O)[C@@H](OC)C(=O)[C@H](C)C[C@H](C)/C=C/C=C/C=C/1C [Example 11, Rapamycin-31,42-bishemisuccinate]		7.8 ± 1.7	> 0.4	> 0.4	> 0.4	> 0.4	> 0.4	
CO[C@H]1C[C@@H]2CC[C@@H](C)[C@@](O)(O2)C(=O)C(=O)N2CCCC[C@H]2C(=O)O[C@H]([C@H](C)C[C@@H]2CC[C@@H](OC(=O)CCCC(=O)O)[C@H](OC)C2)CC(=O)[C@H](C)/C=C(\C)[C@@H](OC(=O)CCCC(=O)O)[C@@H](OC)C(=O)[C@H](C)C[C@H](C)/C=C/C=C/C=C/1C [Example 6, Rapamycin-31,42-bishemiglutarate bistromethamine salt]	0.01	8.0 ± 0.9						MIC (Candida albicans 3669; strain 3669): > 0.4 µg/mL; MIC ([2]; ATCC 10231): 0.4 µg/mL; MIC ([3]; ATCC 38246): > 0.4 µg/mL; MIC ([4]; ATCC 38247): 0.4 µg/mL; MIC ([5]; ATCC 38248): > 0.4 µg/mL
CO[C@H]1C[C@@H]2CC[C@@H](C)[C@@](O)(O2)C(=O)C(=O)N2CCCC[C@H]2C(=O)O[C@H]([C@H](C)C[C@@H]2CC[C@@H](OC(=O)COCC(=O)O)[C@H](OC)C2)CC(=O)[C@H](C)/C=C(\C)[C@@H](OC(=O)COCC(=O)O)[C@@H](OC)C(=O)[C@H](C)C[C@H](C)/C=C/C=C/C=C/1C [Example 10, Rapamycin-31,42-bishemi-3'-oxoglutarate bistromethamine salt]	0.18	10.8 ± 0.8						MIC (Candida albicans 3669; strain 3669): > 0.4 µg/mL; MIC ([2]; ATCC 10231): 0.1 µg/mL; MIC ([3]; ATCC 38246): > 0.4 µg/mL; MIC ([4]; ATCC 38247): 0.2 µg/mL; MIC ([5]; ATCC 38248): 0.4 µg/mL
CO[C@H]1C[C@@H]2CC[C@@H](C)[C@@](O)(O2)C(=O)C(=O)N2CCCC[C@H]2C(=O)O[C@H]([C@H](C)C[C@@H]2CC[C@@H](OC(=O)COCC(=O)O)[C@H](OC)C2)CC(=O)[C@H](C)/C=C(\C)[C@@H](O)[C@@H](OC)C(=O)[C@H](C)C[C@H](C)/C=C/C=C/C=C/1C [Example 7, Rapamycin-42-hemi-3'-oxoglutarate]	0.97	12.0 ± 1.0	0.2 (≈ 0.194 µM)	0.1 (≈ 0.0971 µM)	0.4 (≈ 0.388 µM)	0.1 (≈ 0.0971 µM)	0.1 (≈ 0.0971 µM)	
